Where a name gives a salt, the structure may show the parent alone.
Assays:
KRAS G12D = KRAS G12D (Homo sapiens, UniProt P01116, G12D); experiment: KRAS G12D Probe Displacement Assay (TR-FRET, GDP-loaded); type: binding; settings: KRAS G12D, read-out: KRAS^G12D Probe Displacement Assay IC50
Description: (§1) The synthetic routes of probe 1 and 2, which have been disclosed in PCT/CN2022/070676, are hereby incorporated herein.

WT KRAS = WT KRAS (Homo sapiens, UniProt P01116); experiment: KRAS WT Probe Displacement Assay (TR-FRET, GDP-loaded); type: binding; settings: KRAS WT, read-out: KRAS^WT Probe Displacement Assay IC50
Description: as §1

Chain of KRAS G12D (P01116 1-188 isoform P01116-2 G12D): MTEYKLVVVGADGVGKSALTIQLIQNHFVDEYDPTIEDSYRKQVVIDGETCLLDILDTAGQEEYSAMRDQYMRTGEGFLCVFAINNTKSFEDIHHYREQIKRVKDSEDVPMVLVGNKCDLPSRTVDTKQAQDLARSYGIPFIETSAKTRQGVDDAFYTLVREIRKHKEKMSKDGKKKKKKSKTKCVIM
Chain of WT KRAS (P01116 1-188 isoform P01116-2): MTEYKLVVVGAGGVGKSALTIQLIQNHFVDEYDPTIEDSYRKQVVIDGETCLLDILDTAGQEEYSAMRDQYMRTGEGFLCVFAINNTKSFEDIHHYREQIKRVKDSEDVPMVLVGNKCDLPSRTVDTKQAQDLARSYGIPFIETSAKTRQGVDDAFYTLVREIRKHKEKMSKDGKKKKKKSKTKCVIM

Cc1nc(N)cc(-c2nc3c4c(nc(OCC5(CN6CCC(=CF)CC6)CC5)nc4c2F)N2C[C@H]4CC[C@H](N4)[C@H]2CCO3)c1C(F)(F)F [Example 155, 4-((6aR,7S,10R)-1-fluoro-13-((1-((4-(fluoromethylene)piperidin-1-yl)methyl)cyclopropyl)methoxy)-5,6,6a,7,8,9,10,11-octahydro-4-oxa-3,11a,12,14,15-pentaaza-7,10-methanocyclohepta[4,5]cycloocta [1,2,3-de]naphthalen-2-yl)-6-methyl-5-(trifluoromethyl)pyridin-2-amine]
IC50 (KRAS G12D): < 0.3 nM | IC50 (WT KRAS): 3 to 1000 nM

Cc1cc(N)cc(-c2nc3c4c(nc(OCC5(CN6CC7CC6CC7(F)F)CC5)nc4c2F)N2C[C@H]4CC[C@H](N4)[C@H]2CCO3)c1C(F)(F)F [Example 174, 3-((6aR,7S,10R)-13-((1-((5,5-difluoro-2-azabicyclo[2.2.1]heptan-2-yl)methyl)cyclopropyl)methoxy)-1-fluoro-5,6,6a,7,8,9,10,11-octahydro-4-oxa-3,11a,12,14,15-pentaaza-7,10-methanocyclohepta[4,5]cycloocta[1,2,3-de]naphthalen-2-yl)-5-methyl-4-(trifluoromethyl)aniline]
IC50 (KRAS G12D): < 0.3 nM | IC50 (WT KRAS): 3 to 1000 nM

Cc1cc(N)cc(-c2nc3c4c(nc(OCC5(CN6CCn7cncc7C6)CC5)nc4c2F)N2C[C@H]4CC[C@H](N4)[C@H]2CCO3)c1C(F)(F)F [Example 108, 3-((6aR,7S,10R)-13-((1-((5,6-dihydroimidazo [1,5-a]pyrazin-7(8H)-yl)methyl)cyclopropyl)methoxy)-1-fluoro-5,6,6a,7,8,9, 10,11-octahydro-4-oxa-3,11a,12,14,15-pentaaza-7,10-methanocyclohepta [4,5]cycloocta [1,2,3-de]naphthalen-2-yl)-5-methyl-4-(trifluoromethyl)aniline]
IC50 (KRAS G12D): 0.3 to 3 nM | IC50 (WT KRAS): 3 to 1000 nM

Cc1cc(N)cc(-c2nc3c4c(nc(OCC5(CN6CC7CC7C6)CC5(F)F)nc4c2F)N2C[C@H]4CC[C@H](N4)[C@H]2CCO3)c1C(F)(F)F (single isomer, unassigned) [Example 28]
IC50 (KRAS G12D): < 0.3 nM | IC50 (WT KRAS): 3 to 1000 nM

Cc1cc(N)cc(-c2nc3c4c(nc(OCC5(CN6C[C@H](O)[C@@H](F)C6)CC5)nc4c2F)N2C[C@H]4CC[C@H](N4)[C@H]2CCO3)c1C(F)(F)F (stereo in doubt) [Example 94, trans-1-((1-((((6aR, 7S,10R)-2-(5-amino-3-methyl-2-(trifluoromethyl)phenyl)-1-fluoro-5,6,6a,7,8,9,10,11-octahydro-4-oxa-3,11a,12,14,15-pentaaza-7,10-methanocyclohepta [4,5]cycloocta[1,2,3-de]naphthalen-13-yl)oxy)methyl)cyclopropyl)methyl)-4-fluoropyrrolidin-3-ol formate]
IC50 (KRAS G12D): < 0.3 nM | IC50 (WT KRAS): 3 to 1000 nM

Cc1cc(N)cc(-c2nc3c4c(nc(OCC5(CN6CC(C(F)(F)F)C6)CC5)nc4c2F)N2C[C@H]4CC[C@H](N4)[C@H]2CCO3)c1C(F)(F)F [Example 79, 3-((6aR,7S,10R)-1-fluoro-13-((1-((3-(trifluoromethyl)azetidin-1-yl)methyl)cyclopropyl)methoxy)-5,6,6a,7,8,9,10,11-octahydro-4-oxa-3,11a,12,14,15-pentaaza-7,10-methanocyclohepta [4,5]cycloocta [1,2,3-de]naphthalen-2-yl)-5-methyl-4-(trifluoromethyl)aniline]
IC50 (KRAS G12D): < 0.3 nM | IC50 (WT KRAS): 3 to 1000 nM

Cc1cc(N)cc(-c2nc3c4c(nc(O[C@@H](C)[C@@H]5CCCN5CC5CC5)nc4c2F)N2C[C@H]4CC[C@H](N4)[C@H]2CCO3)c1C(F)(F)F [Example 230, 3-((6aR,7S,10R)-13-((S)-1-((S)-1-(cyclopropylmethyl)pyrrolidin-2-yl)ethoxy)-1-fluoro-5,6,6a,7,8,9,10,11-octahydro-4-oxa-3,11a,12,14,15-pentaaza-7,10-methanocyclohepta[4,5]cycloocta[1,2,3-de]naphthalen-2-yl)-5-methyl-4-(trifluoromethyl)aniline]
IC50 (KRAS G12D): < 0.3 nM | IC50 (WT KRAS): 3 to 1000 nM

From patent publication US20260347373A1, “HETEROCYCLIC COMPOUNDS, COMPOSITIONS THEREOF, AND METHODS OF TREATMENT THEREWITH” (BeOne Medicines I GmbH, priority 2023, published 2026)
